Experimental data from patent US20240293558A1, “KRAS INHIBITOR CONJUGATES” (Erasca, Inc., priority 2021, published 2024).

Target: T1, KRAS 4B G12C protein (Homo sapiens, UniProt P01116, G12C)
T1 construct: made in house; host or cells: E. coli BL21
Assay: In vitro covalent adduct formation (CAF) assay, LC-MS
Format: binding
Settings: 5 μM KRAS 4B G12C, 10 μM compound, 22° C.
Protocol: This Example provides a protocol for assessing covalent adduct formation (CAF) between the compounds provided herein and KRAS.
In vitro covalent adduct formation assay: Covalent adduct formation (CAF) reactions between Cys12 of the KRAS 4B G12C protein and embodiments of the application were measured in vitro using liquid chromatography-mass spectrometry (LC-MS).
Recombinant Human KRAS 4B protein containing the G12C mutation was used in compound screening experiments. This protein contained 188 amino acids in total, including an N-terminal 6-Histidine tag, followed by a Tobacco Etch Virus (TEV) tag, followed by residues 1-169 of the native KRAS 4B sequence. The exact mass of the protein was 21,310 Da as determined by mass spectrometry. […]
The recombinant protein was expressed in E. coli BL21 cells and purified using affinity chromatography via a Ni-NTA column. […] The intact mass of the protein samples was measured by LC-MS using a QExactive+mass spectrometer (Thermo Scientific). An amount of 500 ng total protein was injected onto a C8 reverse phase column, eluted with a seven-minute gradient of 30%-90% acetonitrile/0.10% formic acid, and analyzed for intact mass by the mass spectrometer. Adducts identified were confirmed to be within 1 Dalton of the expected mass, and the relative ratios of free:adduct protein were used to quantify the percentage of protein bound by the compound. […]

Q: For C=CC(=O)N1CCN(c2nc(OCCN3CCC4(CC3)CN(c3cc([C@H](C(=O)N5C[C@H](O)C[C@H]5C(=O)N[C@@H](C)c5ccc(-c6c(F)cccc6F)cc5)C(C)C)on3)C4)nc3c(F)c(-c4nc(N)cc(C)c4C(F)(F)F)c(Cl)cc23)[C@@H](C)C1 (atropisomer, axis not shown) [Example 201, (2S,4R)-1-((R)-2-(3-(7-(2-(((R)-4-((S)-4-acryloyl-2-methylpiperazin-1-yl)-7-(6-amino-4-methyl-3-(trifluoromethyl)pyridin-2-yl)-6-chloro-8-fluoroquinazolin-2-yl)oxy)ethyl)-2,7-diazaspiro[3.5]nonan-2-yl)isoxazol-5-yl)-3-methylbutanoyl)-N—((S)-1-(2′,6′-difluoro-[1,1′-biphenyl]-4-yl)ethyl)-4-hydroxypyrrolidine-2-carboxamide], which “% CAF at 5 min” value is on record?
A: Its value is 98%.
